The source of these data is a melting point compilation (Tetko et al.; mined from patent text by program, amines drawn as free bases though some values may be those of a salt).

As to `O=C(CNC(=S)c1cccnc1)NC1CC1`, the melting point was 152 to 153 °C.

`CCCCCCCCc1ncc([N+](=O)[O-])n1C` came in with a melting point of 141 °C.

The compound `COc1ccc(N2CCN(Cc3n[nH]c4c3Cc3ccccc3-4)CC2)cc1` gave a melting point of 176 to 178 °C.

For `Cc1cc(N)nc(CCc2nc3cc(-c4ccc(S(=O)(=O)N5CCC5)cc4)cnc3[nH]2)c1`, the melting point was determined as 168 °C.

The compound `CCn1cc(Cl)nc(SCC(=O)Nc2ccccc2)c1=O` gave a melting point of 156 to 158 °C.

Turning to `COC(=O)c1cccc(OCc2nc(-c3ccccc3)oc2C)n1`, the melting point was in the range of 97 to 98 °C.

The compound `COC(=O)CCCNC(=O)C(CSC(C)=O)Cc1ccccc1` (stereo not drawn) yielded a melting point of 81 to 82 °C.

`CC(N)C(=O)Nc1ccc([N+](=O)[O-])cc1C(=O)c1ccccc1Cl` (single isomer, unassigned; (+)) yielded a melting point of 132 °C.

`CCn1nc(O)nc1SC` yielded a melting point of 83 to 87 °C.

In turn, `O=C(Nc1ccc(-n2nc(C(F)(F)F)cc2C(F)(F)F)cc1)c1c(F)cccc1Cl` displayed a melting point of 165 to 167 °C.

Turning to `O=C(Nc1ccc2c(c1)CCC2=O)c1cc(Cl)ccc1Cl`, the melting point lay in the range of 218 to 221 °C.

`O=C(O)COc1ccc(SCc2ccc(OCc3ccc(Cl)c(Cl)c3)cc2)c2c1CCC2` gave a melting point of 168 °C.

The compound `Nc1cc(Oc2cc(N)cc(C(F)(F)F)c2)cc(C(F)(F)F)c1` had a melting point of 223 to 224 °C.

For `O=C(NC(Cc1ccccc1)C(=O)O)c1ccccc1` (stereo not drawn), the melting point lay within 183 to 184 °C.

`COC(=O)c1ccc(F)c([N+](=O)[O-])c1`: the melting point was 58.5 to 59.5 °C.

The compound `CCCOC1=Nc2ccc(Cl)cc2C(=CCCN)N1CCC` displayed a melting point of 50 to 51 °C.

On to `CC(=O)c1cc(C(=O)O)c(O)c([N+](=O)[O-])c1`, for which the melting point was in the range of 192 to 193 °C.

`CC1(C)C(=O)N(CCO)C(=O)N1CN1C(=O)N(CCO)C(=O)C1(C)C`: the melting point lay within 165 to 166 °C.

The compound `CC(C)(C)c1cc(NC(=O)NCCc2ccc([N+](=O)[O-])cc2)cc(C(C)(C)C)c1O` registered a melting point of 185 to 187 °C.

In turn, `C=CCOC1OC(C)C(OCc2ccccc2)C(OCc2ccccc2)C1OC1OC(C)C(OCc2ccccc2)C(OCc2ccccc2)C1O` (stereo not drawn) registered a melting point of 98 to 99 °C.

On to `COC(=O)c1cc2c(OC[C@@H](O)CN3CCC(c4ccc5ccccc5c4)CC3)cccc2o1`, for which the melting point was in the range of 118 to 119 °C.

The compound `CCCCCS(=O)(=O)NC(=O)CCc1ccc(OCCOC)cc1OCC1CC1` returned a melting point of 81.7 to 82.8 °C.

The compound `CC1(C)Oc2c([N+](=O)[O-])ccc(Cl)c2C1=O` registered a melting point of 167 to 168 °C.

`CC(C)c1ccc2nc3ccc(C(=O)OCC#N)cn3c(=O)c2c1` registered a melting point of 186 to 188 °C.

Compound `CCCNC(=O)C1(C/C=C\CSc2nc3ccc(OCC)cc3s2)c2ccccc2-c2ccccc21` showed a melting point of 135 to 137 °C.

For the compound `CCCNC(=O)Nc1c(C)c(C)c2c(c1C)C(c1ccc(C(C)C)cc1)CO2` (stereo not drawn), the melting point was 177 to 178 °C.

`C#CC1(O)C(C)CC2C3CCC4=CC(=O)CCC4(C)C3CCC21C` (stereo not drawn) gave a melting point of over 230 °C.

`Cc1ccccc1-c1cnc(Nc2ccccn2)s1` showed a melting point of 155 to 160 °C.

`CCOC12N=C(c3cccnc3)SC1Cc1cc(Cl)ccc12` (stereo not drawn) showed a melting point of 89 to 90 °C.

Turning to `N#Cc1cc(Br)cc2ccc(O)cc12`, the melting point fell in the range of 222 to 224 °C.

As for `CCC1c2cccn2-c2ccc(F)cc2N1C(=O)c1cccc(OC)c1` (stereo not drawn), the melting point lay in the range of 70 to 74 °C.

Regarding `NC(N)=Nc1nc(-c2cccc(CNC=O)n2)cs1`, the melting point was in the range of 192 to 193 °C.

The compound `CCCCOc1nc(-c2ccco2)c2ncn(Cc3ccc(OC)cc3)c2n1` came in with a melting point of 113 °C.

The compound `NC(=O)c1cnn2cccc2c1NCC1CCCO1` (stereo not drawn) showed a melting point of 120 °C.

`N#Cc1nn(-c2c(Cl)cc(C(F)(F)F)cc2Cl)c(N)c1-c1ccoc1S(=O)C(F)(F)F` (stereo not drawn) had a melting point of 141 to 142 °C.

In turn, `O=C(Nc1ccc(OC(F)(F)F)cc1)N1CC(c2cc(C(F)(F)F)ns2)C(c2ccc(Cl)cc2)=N1` (stereo not drawn) registered a melting point of 101 to 104 °C.

`CCC1(CC)CN(C2CC3(C)C(CCC4C5CCC(C(C)=O)C5(C)CC(=O)C43)CC2O)CCO1` (stereo not drawn) displayed a melting point of 177 to 179 °C.

With `CN(C)Cc1nc2cccnc2[nH]1`, the melting point lay within 123 to 125 °C.

As to `CCOCc1nc2c(N)nc3ccccc3c2n1NCc1ccccc1`, the melting point was 152 to 155 °C.

Consider `Cc1c(Br)c2c(c(C)c1NC(=O)OC(C)(C)C)CC(C)(C)O2`, for which the melting point fell in the range of 115 to 117 °C.

For the compound `O=[N+]([O-])c1cc(Br)ccc1-c1ccccc1F`, the melting point fell in the range of 42 to 45 °C.

Consider `O=C(O)Cn1cc(Cc2nc3cc(C(F)(F)F)ccc3s2)c2ccc(Br)cc21`, for which the melting point is 265 to 267 °C.

`CC(C)(C)c1ccc(S(=O)(=O)Nc2nc(-c3ncccn3)nc(OCCOc3ncc(Br)cn3)c2-c2cccs2)cc1` gave a melting point of 222 to 224 °C.

On to `CCCCc1nc2c(N)nc3cccnc3c2n1CCCCNC(=O)OC(C)(C)C`, for which the melting point lay in the range of 148 to 150 °C.

`CCCCC(NC(=O)OCc1ccccc1)P(C)(=O)O` (stereo not drawn): the melting point lay within 134 to 135 °C.

`CC(C)(C(=O)O)c1ccc2oc(-c3ccccc3)nc2c1`: the melting point was 92 to 95 °C.

`COc1ccc(C(=O)CC(=O)OC(C)(C)C)c(O)c1` had a melting point of 40 to 42 °C.

The compound `Nc1cc2c3c(cccc3c1N1CCCC1)C(=O)N(O)C2=O` registered a melting point of 253 to 256 °C.

As for `Cc1nc(CO)c(CO)[nH]1`, the melting point is 182 °C.

Consider `CC(C)(C)NS(=O)(=O)c1cccnc1F`, for which the melting point was in the range of 95 to 97 °C.

Consider `O=c1cc(-c2ccncn2)nc2n1CCC1(CCNC1)N2` (stereo not drawn), for which the melting point lay within 226 to 228 °C.

`CN1CCN(C2=Nc3ccccc3Nc3c(Cl)cccc32)CC1` had a melting point of 168 to 170 °C.

The compound `Nc1cc(C(c2ccc([N+](=O)[O-])c(N)c2)(C(F)(F)F)C(F)(F)F)ccc1[N+](=O)[O-]` registered a melting point of 257 to 259 °C.

As to `CN1CCN(C(=O)Oc2ccc(C[C@H](NC(=O)Nc3ccccc3S(=O)(=O)c3ccccc3)C(=O)O)cc2)CC1`, the melting point worked out at 160 °C.

Compound `CC(C)(C)OC(=O)N1CCC(C(=O)N2CCC(c3[nH]nc4c3C(=O)c3c(NC(=O)NN5CCOCC5)cccc3-4)CC2)CC1` registered a melting point of 220 to 222 °C.

Turning to `S=c1nc(-c2cc(Cl)sc2Cl)[nH]n1Cc1ccccc1`, the melting point lay in the range of 160 to 162 °C.

`Cc1cc(N)cnc1Oc1ccc(Cl)c(C(F)(F)F)c1` gave a melting point of 92 to 94 °C.

Compound `N#Cc1cnn2c1N(C(=O)CN1CCN(C(=O)Nc3ccc(Cl)c(C(F)(F)F)c3)CC1)CC=C2c1cccc(C(F)(F)F)c1` displayed a melting point of 214 to 216 °C.

`CSc1ccc(NS(=O)(=O)c2cccc3c(N(C)C)cccc23)nn1` returned a melting point of 188 to 190 °C.

For the compound `CC(O)(CF)C(=O)Nc1ccc(S(=O)(=O)c2ccncc2)cc1` (stereo not drawn), the melting point fell in the range of 209 to 211 °C.

`COC(=O)CCC1(CCC(=O)OC)c2cc(I)ccc2-c2ccc(I)cc21` registered a melting point of 106 to 108 °C.

On to `Oc1ccc2nc(-c3cccc4c(Br)c(O)ccc34)oc2c1`, for which the melting point lay in the range of 221 to 223 °C.

The compound `COc1ccc(-c2ccc3ccccc3c2C(=O)N(C)C)cc1` registered a melting point of 194 to 195 °C.

`O=C(NC[C@H](O)[C@@H](O)[C@H](O)C(=O)CO)OCc1ccccc1`: the melting point is 107 to 111 °C.

The compound `CCOC(=O)NC(C)=N` showed a melting point of 111 to 114 °C.

The compound `Cc1n[nH]c(C)c1Cc1cc(Cl)cc(Cl)c1` showed a melting point of 133 to 134 °C.

With `CS(=O)(=O)c1ccc(-n2cc(C(F)(F)F)nc2-c2ccsc2)cc1`, the melting point lay within 194 to 197 °C.

For `Cn1c2c(n(C)c1=O)CC(=NNC(=N)N)C=C2`, the melting point was determined as 238 °C.

`CCOC(=O)c1[nH]c(=O)c(CC(C)C)[n+]([O-])c1O` returned a melting point of 153 to 155 °C.

Turning to `Oc1cccc([C@H]2CCCC[C@H]2NCCCc2ccccc2)c1` (racemic), the melting point is 112 to 113 °C.

Take `OCCOc1ccc(C2CNCCN2)cc1` (racemic): the melting point turned out to be 141 °C.

Compound `CC1Nc2cc(F)c(F)cc2-n2cccc21` (stereo not drawn) had a melting point of 93 to 95 °C.

In turn, `Cc1ccc(S(=O)(=O)N2CCCC2c2ccccc2)cc1` (racemic) came in with a melting point of 109 °C.

For the compound `COC(=O)c1ccc2nc(CC(C)C)c(CNC(=O)OC(C)(C)C)c(-c3ccc(C)cc3)c2c1`, the melting point is 192 to 194 °C.

The compound `COC(=O)C1=CC2=CCC3C(CCC4(C)C(C(=O)c5ccc(O)cc5)CCC34)C2(C)CC1` (stereo not drawn) gave a melting point of 208 to 210 °C.

Take `Cc1cc(NC(=O)c2ccc(C(=O)N3CCN(c4ncccc4NC(C)C)CC3)nc2)n[nH]1`: the melting point fell in the range of 116 to 117 °C.

Take `O=C(O)c1ccccc1OCc1cccc(OCc2ccc3ccccc3n2)c1`: the melting point was 149 to 154 °C.

Take `Cc1on(C(=O)N(Cc2ccccc2)c2ccccc2)c(=O)c1Cl`: the melting point fell in the range of 118 to 119 °C.

As for `Cn1ncnc1COc1nc2c(-c3ccccc3F)nncn2c1-c1ccccc1`, the melting point came out at 195 °C.

`COc1ccc(-c2ncc(-c3cnc(-c4ccccc4)[nH]3)cn2)cc1OC` registered a melting point of 231 °C.

`CCOP(=O)(Cc1ccc(NC(=O)/C=C/c2cnn(C)c2-c2ccc(F)cc2)cc1)OCC` returned a melting point of 208 to 209 °C.

Compound `COc1ccc(F)cc1NC(=O)Nc1ccc(N2CCN(C(=O)Nc3ccc(OCCO)cc3C(F)(F)F)CC2)cc1` came in with a melting point of 140 to 141 °C.

`O=C(O)CCc1ccc(SCCNS(=O)(=O)c2ccc(Cl)cc2)cc1` registered a melting point of 117 to 119 °C.

`O=C(O)CN1CCOc2ccc([N+](=O)[O-])cc2C1=O` gave a melting point of 110 to 120 °C.

Compound `CS(=O)(=O)OCCc1cc(Nc2ncc3c(n2)-c2ccccc2[C@H](c2ccccc2F)C3)ccc1F` gave a melting point of 99 to 100 °C.

Compound `COc1ccc(COc2coc(COC3CCCCO3)cc2=O)cc1` (stereo not drawn) had a melting point of 95 to 96 °C.

As for `Cc1ccc(C(O)C2OC(n3cc(C)c(=O)[nH]c3=O)CC2(O)c2ccc(C)cc2)cc1` (stereo not drawn), the melting point was 194 to 196 °C.

As for `CC(OC(=O)c1cn(-c2ccc(F)cc2)c(-c2ccc(N(C)C)cc2)cc1=O)OC(=O)C(C)(C)C` (stereo not drawn), the melting point lay within 117 to 120 °C.

The term melting point denotes the temperature, or range, at which the solid turns liquid.
